Article PMC10824666 (Nature Cancer, 2023)
Where two headings read alike, the source gives them in different places.

Key:
Assay in all cases: biochemical
Parameters in all cases: Eurofins DiscoverX kinase panel, competitive binding assay at 1 uM, percent of DMSO control
Settings in all cases: competitive binding, percent of DMSO control
[1] = target: T1, TGFBR1 (Homo sapiens, UniProt P36897)
T1 sequence (P36897 1-503): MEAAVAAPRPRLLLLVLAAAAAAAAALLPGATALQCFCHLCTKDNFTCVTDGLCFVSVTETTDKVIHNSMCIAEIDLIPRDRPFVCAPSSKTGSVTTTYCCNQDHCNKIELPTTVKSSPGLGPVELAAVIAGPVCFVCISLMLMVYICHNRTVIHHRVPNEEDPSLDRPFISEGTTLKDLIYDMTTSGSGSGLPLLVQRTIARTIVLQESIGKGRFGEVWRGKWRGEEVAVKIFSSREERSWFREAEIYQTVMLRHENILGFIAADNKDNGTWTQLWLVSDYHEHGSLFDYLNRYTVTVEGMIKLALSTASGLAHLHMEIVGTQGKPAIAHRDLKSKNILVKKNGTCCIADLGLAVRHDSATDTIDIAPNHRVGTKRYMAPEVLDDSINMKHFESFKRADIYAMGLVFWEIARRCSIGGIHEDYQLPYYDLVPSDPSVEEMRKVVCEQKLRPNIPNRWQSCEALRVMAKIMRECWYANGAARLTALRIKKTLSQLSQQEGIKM
Procedure, shortened: (§1)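 Competitive binding assay across a 96-kinase panel with KIF18A compounds at 1 µM; values given as percentage of control (POC), single experiment.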

[2] = target: RPS6KB1 (Homo sapiens, UniProt P23443)
Sequence of RPS6KB1 (P23443 whole entry): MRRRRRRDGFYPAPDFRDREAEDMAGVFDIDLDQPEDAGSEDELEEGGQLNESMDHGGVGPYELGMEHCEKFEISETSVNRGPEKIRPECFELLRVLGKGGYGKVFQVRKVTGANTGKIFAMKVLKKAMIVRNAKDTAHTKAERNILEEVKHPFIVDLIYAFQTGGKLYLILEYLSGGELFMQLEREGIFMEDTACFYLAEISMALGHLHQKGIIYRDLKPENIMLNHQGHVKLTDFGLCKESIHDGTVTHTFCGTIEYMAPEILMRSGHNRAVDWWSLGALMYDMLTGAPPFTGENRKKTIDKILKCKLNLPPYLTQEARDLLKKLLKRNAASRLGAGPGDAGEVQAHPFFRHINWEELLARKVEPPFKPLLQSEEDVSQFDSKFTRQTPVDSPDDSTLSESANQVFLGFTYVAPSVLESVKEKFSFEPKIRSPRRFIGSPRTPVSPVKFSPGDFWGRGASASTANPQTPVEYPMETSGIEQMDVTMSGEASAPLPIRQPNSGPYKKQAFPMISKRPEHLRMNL
Procedure, shortened: as §1

[3] = target: T2, PI3K alpha (Homo sapiens, UniProt P42336)
T2 construct: gene PIK3CA
T2 sequence (P42336 whole entry): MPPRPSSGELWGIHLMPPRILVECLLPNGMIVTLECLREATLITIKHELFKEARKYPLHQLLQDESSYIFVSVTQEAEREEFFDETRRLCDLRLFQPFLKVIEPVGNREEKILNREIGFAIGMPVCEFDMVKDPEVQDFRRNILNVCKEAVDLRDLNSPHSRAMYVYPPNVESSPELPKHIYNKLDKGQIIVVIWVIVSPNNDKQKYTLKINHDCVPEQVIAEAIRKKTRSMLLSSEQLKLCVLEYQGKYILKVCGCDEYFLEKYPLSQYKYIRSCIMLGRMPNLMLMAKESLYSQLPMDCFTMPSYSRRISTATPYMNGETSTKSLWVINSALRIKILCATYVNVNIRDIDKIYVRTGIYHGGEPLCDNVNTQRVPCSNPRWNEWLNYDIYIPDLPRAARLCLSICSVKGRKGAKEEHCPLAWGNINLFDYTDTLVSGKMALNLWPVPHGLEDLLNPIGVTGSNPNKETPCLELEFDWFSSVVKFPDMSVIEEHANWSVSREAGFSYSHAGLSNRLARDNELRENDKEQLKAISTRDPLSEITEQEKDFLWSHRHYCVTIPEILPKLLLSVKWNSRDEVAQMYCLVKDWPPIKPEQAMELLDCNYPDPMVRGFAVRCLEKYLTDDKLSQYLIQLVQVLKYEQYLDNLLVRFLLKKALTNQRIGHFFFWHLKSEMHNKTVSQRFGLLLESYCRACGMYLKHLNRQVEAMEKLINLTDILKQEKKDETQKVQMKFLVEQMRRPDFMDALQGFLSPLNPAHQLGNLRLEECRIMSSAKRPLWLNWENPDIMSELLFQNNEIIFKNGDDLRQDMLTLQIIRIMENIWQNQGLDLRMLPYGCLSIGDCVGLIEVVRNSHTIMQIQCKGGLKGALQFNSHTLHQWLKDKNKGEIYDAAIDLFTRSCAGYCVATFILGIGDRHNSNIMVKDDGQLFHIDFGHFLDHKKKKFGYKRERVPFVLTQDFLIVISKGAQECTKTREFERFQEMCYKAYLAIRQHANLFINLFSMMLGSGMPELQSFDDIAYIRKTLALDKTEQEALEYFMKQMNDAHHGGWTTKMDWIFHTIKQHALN
Procedure, shortened: as §1

[4] = target: EPHA2 (Homo sapiens, UniProt P29317)
Sequence of EPHA2 (P29317 whole entry): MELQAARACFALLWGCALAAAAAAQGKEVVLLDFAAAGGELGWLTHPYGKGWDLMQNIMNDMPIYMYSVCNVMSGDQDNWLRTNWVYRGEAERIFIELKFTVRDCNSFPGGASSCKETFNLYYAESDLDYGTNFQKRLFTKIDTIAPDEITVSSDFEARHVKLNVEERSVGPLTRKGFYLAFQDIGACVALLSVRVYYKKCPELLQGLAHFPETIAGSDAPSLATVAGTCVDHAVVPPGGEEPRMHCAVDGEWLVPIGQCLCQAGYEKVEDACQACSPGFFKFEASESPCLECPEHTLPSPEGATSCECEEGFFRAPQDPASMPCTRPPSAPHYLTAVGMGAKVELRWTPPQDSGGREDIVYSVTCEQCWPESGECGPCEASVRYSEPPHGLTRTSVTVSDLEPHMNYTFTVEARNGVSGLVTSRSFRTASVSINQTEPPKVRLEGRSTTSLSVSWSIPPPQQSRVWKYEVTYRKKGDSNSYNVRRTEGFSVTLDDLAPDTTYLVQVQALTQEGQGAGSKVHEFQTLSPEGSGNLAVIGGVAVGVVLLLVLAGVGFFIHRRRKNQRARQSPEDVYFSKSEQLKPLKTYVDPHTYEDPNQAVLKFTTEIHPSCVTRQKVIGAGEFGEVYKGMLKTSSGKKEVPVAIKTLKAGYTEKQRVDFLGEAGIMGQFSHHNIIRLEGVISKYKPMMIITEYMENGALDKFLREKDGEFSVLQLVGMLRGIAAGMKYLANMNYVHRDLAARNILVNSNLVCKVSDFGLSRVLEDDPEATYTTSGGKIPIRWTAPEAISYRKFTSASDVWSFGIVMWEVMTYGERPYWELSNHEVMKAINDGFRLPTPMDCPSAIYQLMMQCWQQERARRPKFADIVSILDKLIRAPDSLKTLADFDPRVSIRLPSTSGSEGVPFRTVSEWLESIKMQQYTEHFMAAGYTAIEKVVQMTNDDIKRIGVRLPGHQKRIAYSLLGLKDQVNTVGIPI
Procedure, shortened: as §1

[5] = target: T3, p38 α (Homo sapiens, UniProt Q16539)
T3 construct: gene MAPK14
Procedure, shortened: as §1

[6] = target: T4, Abl_unphos (Homo sapiens, UniProt P00519)
T4 construct: gene ABL1; non-phosphorylated
T4 sequence (P00519 whole entry): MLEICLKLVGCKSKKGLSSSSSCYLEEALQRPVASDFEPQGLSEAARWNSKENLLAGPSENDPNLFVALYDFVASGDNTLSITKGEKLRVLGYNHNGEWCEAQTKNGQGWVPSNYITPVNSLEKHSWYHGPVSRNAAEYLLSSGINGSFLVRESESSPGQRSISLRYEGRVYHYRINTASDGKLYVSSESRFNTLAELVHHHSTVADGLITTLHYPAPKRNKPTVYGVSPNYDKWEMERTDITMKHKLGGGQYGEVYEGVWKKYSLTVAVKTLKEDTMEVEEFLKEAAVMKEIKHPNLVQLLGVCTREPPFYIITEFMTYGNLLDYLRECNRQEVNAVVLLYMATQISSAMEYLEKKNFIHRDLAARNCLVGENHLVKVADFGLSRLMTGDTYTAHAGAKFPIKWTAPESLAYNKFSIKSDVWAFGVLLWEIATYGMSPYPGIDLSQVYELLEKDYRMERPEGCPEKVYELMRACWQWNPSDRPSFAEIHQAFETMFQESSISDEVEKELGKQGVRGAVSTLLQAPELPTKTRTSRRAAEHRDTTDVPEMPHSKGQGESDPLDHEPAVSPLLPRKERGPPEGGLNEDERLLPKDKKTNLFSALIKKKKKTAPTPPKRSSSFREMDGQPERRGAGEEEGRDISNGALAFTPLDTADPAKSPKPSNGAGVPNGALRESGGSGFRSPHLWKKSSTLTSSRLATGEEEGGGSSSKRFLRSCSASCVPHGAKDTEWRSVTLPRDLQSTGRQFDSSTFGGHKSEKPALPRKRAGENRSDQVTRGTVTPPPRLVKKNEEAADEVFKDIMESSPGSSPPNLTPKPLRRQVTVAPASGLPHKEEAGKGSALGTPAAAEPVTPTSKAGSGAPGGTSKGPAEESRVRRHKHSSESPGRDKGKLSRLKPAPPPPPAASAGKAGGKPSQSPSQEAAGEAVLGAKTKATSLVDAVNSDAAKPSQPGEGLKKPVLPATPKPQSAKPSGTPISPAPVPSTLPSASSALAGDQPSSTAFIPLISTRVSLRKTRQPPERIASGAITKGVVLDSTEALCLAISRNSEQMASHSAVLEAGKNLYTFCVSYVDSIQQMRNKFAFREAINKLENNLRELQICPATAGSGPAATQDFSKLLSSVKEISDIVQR
Procedure, shortened: as §1

[7] = target: PIM1 (Homo sapiens, UniProt P11309)
Sequence of PIM1 (P11309 whole entry): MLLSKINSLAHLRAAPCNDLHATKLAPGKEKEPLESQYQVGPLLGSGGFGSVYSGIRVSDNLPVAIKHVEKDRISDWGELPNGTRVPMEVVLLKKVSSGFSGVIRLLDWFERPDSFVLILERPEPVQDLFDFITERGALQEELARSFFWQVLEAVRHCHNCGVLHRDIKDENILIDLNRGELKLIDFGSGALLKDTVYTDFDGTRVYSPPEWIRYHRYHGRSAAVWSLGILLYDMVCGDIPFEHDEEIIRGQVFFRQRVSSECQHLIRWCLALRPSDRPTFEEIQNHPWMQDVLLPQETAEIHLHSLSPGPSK
Procedure, shortened: as §1

[8] = target: MAP4K1 (Homo sapiens, UniProt Q92918)
Sequence of MAP4K1 (Q92918 whole entry): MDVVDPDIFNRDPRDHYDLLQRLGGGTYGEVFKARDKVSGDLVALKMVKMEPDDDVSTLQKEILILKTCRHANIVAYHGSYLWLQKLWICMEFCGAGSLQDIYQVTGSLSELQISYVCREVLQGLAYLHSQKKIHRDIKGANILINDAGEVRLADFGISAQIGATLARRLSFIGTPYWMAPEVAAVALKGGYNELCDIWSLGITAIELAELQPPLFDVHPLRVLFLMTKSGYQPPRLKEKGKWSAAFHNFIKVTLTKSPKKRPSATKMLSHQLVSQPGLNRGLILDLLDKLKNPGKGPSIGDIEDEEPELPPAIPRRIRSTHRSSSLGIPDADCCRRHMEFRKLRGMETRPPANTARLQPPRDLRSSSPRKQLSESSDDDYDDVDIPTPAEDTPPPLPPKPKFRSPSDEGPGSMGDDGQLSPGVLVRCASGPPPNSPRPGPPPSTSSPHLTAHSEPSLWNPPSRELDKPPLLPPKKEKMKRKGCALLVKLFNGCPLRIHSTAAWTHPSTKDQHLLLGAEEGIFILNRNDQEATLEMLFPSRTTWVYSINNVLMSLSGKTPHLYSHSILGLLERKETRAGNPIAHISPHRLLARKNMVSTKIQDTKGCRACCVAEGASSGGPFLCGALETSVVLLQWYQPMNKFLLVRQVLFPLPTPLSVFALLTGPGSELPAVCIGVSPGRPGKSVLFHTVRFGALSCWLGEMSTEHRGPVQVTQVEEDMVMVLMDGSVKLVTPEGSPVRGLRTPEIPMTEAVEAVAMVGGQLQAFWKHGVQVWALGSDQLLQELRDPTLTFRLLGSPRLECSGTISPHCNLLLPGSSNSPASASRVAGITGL
Procedure, shortened: as §1

[9] = read-out: Kinome Profiling performed by Eurofins DiscoverX / AM-1882, 1.0 µM / POC
[10] = read-out: Kinome Profiling performed by Eurofins DiscoverX / AM-0277, 1.0 µM / POC
[11] = read-out: Kinome Profiling performed by Eurofins DiscoverX / AM-5308, 1.0 µM / POC

Q: What does the source list for CC(C)(C)NS(=O)(=O)c1cccc(NC(=O)c2ccc(S(=O)(=O)NC(C)(C)C)cc2N2CCC3(CC2)CC3)c1 [AM-1882]?
A: remaining activity at 1 µM [1, 9]: 94%; remaining activity at 1 µM [2, 9]: 61%; remaining activity at 1 µM [3, 9]: 100%; remaining activity at 1 µM [4, 9]: 99.5%; remaining activity at 1 µM [5, 9]: 100%; remaining activity at 1 µM [6, 9]: 58%; remaining activity at 1 µM [7, 9]: 88.5%; remaining activity at 1 µM [8, 9]: 90%

Q: Which results are given for CC(C)(CO)Nc1ccc(C(=O)Nc2cccc(S(=O)(=O)C3CCCC3)c2)c(N2CCC3(CC2)CC3)n1 [AM-0277]?
A: remaining activity at 1 µM [1, 10]: 73%; remaining activity at 1 µM [2, 10]: 100%; remaining activity at 1 µM [3, 10]: 100%; remaining activity at 1 µM [4, 10]: 80%; remaining activity at 1 µM [5, 10]: 100%; remaining activity at 1 µM [6, 10]: 100%; remaining activity at 1 µM [7, 10]: 100%; remaining activity at 1 µM [8, 10]: 88%

Q: With C[C@@H]1CN(c2cccc(NC(=O)c3ccc(NS(=O)(=O)CCO)cc3N3CCC4(CC3)CC4)n2)CCO1 [AM-5308] as the compound, how does the remaining activity at 1 µM [1, 11] read?
A: 100%

Q: And the remaining activity at 1 µM [2, 11]?
A: 94.5%

Q: And the remaining activity at 1 µM [3, 11]?
A: 91.5%

Q: What about the remaining activity at 1 µM [4, 11] of the same compound?
A: 92.5%

Q: What about the remaining activity at 1 µM [5, 11] of the same compound?
A: 89.5%

Q: And the remaining activity at 1 µM [6, 11]?
A: 93%

Q: What about the remaining activity at 1 µM [7, 11] of the same compound?
A: 91%

Q: What about the remaining activity at 1 µM [8, 11] of the same compound?
A: 98.5%
